Data from PubChem BioAssay (NCI).
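Dose response: 5 concentrations. Exposure: 48 h. Format: 96-well plates. Endpoint: linear interpolation; highest concentration if not reached. GI50 = concentration required for 50% inhibition of growth. At the TGI there is no net growth.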

Assays:
Assay in all cases: growth of human tumour cells (NCI), 48 h
[1] = system: 786-0 renal
[2] = system: A498 renal
[3] = system: A549 NSCLC
[4] = system: ACHN renal
[5] = system: BT-549 breast
[6] = system: CAKI-1 renal
[7] = system: CCRF-CEM leukemia
[8] = system: COLO 205 colon
[9] = system: DU-145 prostate
[10] = system: EKVX NSCLC
[11] = system: HCC-2998 colon
[12] = system: HCT-116 colon
[13] = system: HCT-15 colon
[14] = system: HL-60(TB) leukemia
[15] = system: HOP-62 NSCLC
[16] = system: HOP-92 NSCLC
[17] = system: HS 578T breast
[18] = system: HT29 colon
[19] = system: IGROV1 ovarian
[20] = system: K-562 leukemia
[21] = system: KM12 colon
[22] = system: LOX IMVI melanoma
[23] = system: M14 melanoma
[24] = system: MALME-3M melanoma
[25] = system: MCF7 breast
[26] = system: MDA-MB-231 breast
[27] = system: MDA-MB-435
[28] = system: MOLT-4 leukemia
[29] = system: NCI-H226 lung
[30] = system: NCI-H23 lung
[31] = system: NCI-H460 lung
[32] = system: NCI-H522 lung
[33] = system: NCI/ADR-RES ovarian
[34] = system: OVCAR-3 ovarian
[35] = system: OVCAR-4 ovarian
[36] = system: OVCAR-5 ovarian
[37] = system: OVCAR-8 ovarian
[38] = system: PC-3 prostate
[39] = system: RPMI-8226 leukemia
[40] = system: RXF 393 renal
[41] = system: SF-268 CNS
[42] = system: SF-295 CNS
[43] = system: SF-539 CNS
[44] = system: SK-MEL-2 melanoma
[45] = system: SK-MEL-28 melanoma
[46] = system: SK-MEL-5 melanoma
[47] = system: SK-OV-3 ovarian
[48] = system: SN12C renal
[49] = system: SNB-19 CNS
[50] = system: SNB-75 CNS
[51] = system: SR leukemia
[52] = system: SW-620 colon
[53] = system: T-47D breast
[54] = system: TK-10 renal
[55] = system: U251 CNS
[56] = system: UACC-257 melanoma
[57] = system: UACC-62 melanoma
[58] = system: UO-31 renal

Question: What does the source list for `O=C(Nc1ccccc1C(=O)N/N=C(\c1ccccc1)c1ccccn1)c1ccccc1`?
Answer: GI50 [1]: 399 nM; TGI [1]: > 100000 nM; GI50 [2]: 2950 nM; TGI [2]: > 100000 nM; GI50 [3]: 987 nM; TGI [3]: > 100000 nM; GI50 [4]: 418 nM; TGI [4]: > 100000 nM; GI50 [5]: 2180 nM; TGI [5]: > 100000 nM; GI50 [6]: 397 nM; TGI [6]: > 100000 nM; GI50 [7]: 351 nM; TGI [7]: > 100000 nM; GI50 [8]: 427 nM; TGI [8]: > 100000 nM; GI50 [9]: 999 nM; TGI [9]: > 100000 nM; GI50 [10]: 339 nM; TGI [10]: > 100000 nM; GI50 [11]: 537 nM; TGI [11]: > 100000 nM; GI50 [12]: 405 nM; TGI [12]: > 100000 nM; GI50 [13]: 112 nM; TGI [13]: > 100000 nM; GI50 [14]: 606 nM; TGI [14]: > 22000 nM; GI50 [15]: 396 nM; TGI [15]: > 100000 nM; GI50 [16]: 552 nM; TGI [16]: 47800 nM; GI50 [17]: > 100000 nM; TGI [17]: > 100000 nM; GI50 [18]: 797 nM; TGI [18]: > 100000 nM; GI50 [19]: 502 nM; TGI [19]: > 100000 nM; GI50 [20]: 1450 nM; TGI [20]: > 100000 nM; GI50 [21]: 581 nM; TGI [21]: > 100000 nM; GI50 [22]: 505 nM; TGI [22]: > 100000 nM; GI50 [23]: 457 nM; TGI [23]: 4630 nM; GI50 [24]: 1750 nM; TGI [24]: > 100000 nM; GI50 [25]: 556 nM; TGI [25]: > 100000 nM; GI50 [26]: 478 nM; TGI [26]: > 100000 nM; GI50 [27]: 1390 nM; TGI [27]: > 100000 nM; GI50 [28]: 460 nM; TGI [28]: > 100000 nM; GI50 [29]: 828 nM; TGI [29]: > 100000 nM; GI50 [30]: 1870 nM; TGI [30]: > 100000 nM; GI50 [31]: 402 nM; TGI [31]: > 100000 nM; GI50 [32]: 1270 nM; TGI [32]: > 100000 nM; GI50 [33]: 276 nM; TGI [33]: > 100000 nM; GI50 [34]: 346 nM; TGI [34]: > 100000 nM; GI50 [35]: 330 nM; TGI [35]: > 100000 nM; GI50 [36]: 933 nM; TGI [36]: > 100000 nM; GI50 [37]: 583 nM; TGI [37]: > 100000 nM; GI50 [38]: 711 nM; TGI [38]: > 100000 nM; GI50 [39]: 823 nM; TGI [39]: > 100000 nM; GI50 [40]: 1930 nM; TGI [40]: > 82400 nM; GI50 [41]: 609 nM; TGI [41]: > 100000 nM; GI50 [42]: 427 nM; TGI [42]: > 67000 nM; GI50 [43]: 621 nM; TGI [43]: > 100000 nM; GI50 [44]: 4850 nM; TGI [44]: > 100000 nM; GI50 [45]: 1230 nM; TGI [45]: > 100000 nM; GI50 [46]: 560 nM; TGI [46]: 2460 nM; GI50 [47]: 504 nM; TGI [47]: > 100000 nM; GI50 [48]: 623 nM; TGI [48]: > 100000 nM; GI50 [49]: 912 nM; TGI [49]: > 100000 nM; GI50 [50]: 1070 nM; TGI [50]: > 100000 nM; GI50 [51]: 507 nM; TGI [51]: > 100000 nM; GI50 [52]: 723 nM; TGI [52]: > 100000 nM; GI50 [53]: 666 nM; TGI [53]: > 100000 nM; GI50 [54]: 584 nM; TGI [54]: > 100000 nM; GI50 [55]: 657 nM; TGI [55]: > 100000 nM; GI50 [56]: 2580 nM; TGI [56]: > 100000 nM; GI50 [57]: 496 nM; GI50 [58]: 428 nM; TGI [58]: > 25500 nM
